# Laboratory results from US12479892B2, “Immunogenic protein against gonococcal infection” (priority 2019, dated 2025).
# Like-named read-outs stand apart in the source and are kept apart here.
# B1: NHBA-c: C-terminal fragment of NHBA of N. gonorrhoeae 1291 (SEQ ID NO:2, 183 amino acids); antisera to it, adjuvant not stated at place (protein)
# chain: SLPAEIPLIPVNQADTLIVDGEAVSLTGHSGNIFAPEGNYRYLTYGAEKLPGGSYALRVQGEPAKGEMLAGTAVYNGEVLHFHMENGRPYPSGGRFAAKVDFGSKSVDGIIDSSDDLHMGTQKFKAAIDGNGFKGTWTENGGGDVSGRFYGPAGEEVAGKYSYRPTDAEKGGFGVFAGKKDRD
# modifications: Neisseria gonorrhoeae (strain 1291)
# Tests used:
# NHBANg = NHBANg (Neisseria gonorrhoeae, UniProt B4RQT3); experiment: SPR analysis of glycan binding; conditions: for SPR binding, in words: glycans 100 μM to 1 nM
# Procedure: Surface plasmon resonance (SPR) was performed using a BIAcore T200 instrument with recombinant NHBANg (100 μg/ml) immobilized on flow cells 2-4 by amine coupling on series S CMS sensor chips (GE Healthcare) as described previously. Flow cell 1 was used as the reference cell and immobilized with ethanolamine only. Single cycle kinetics was used to calculate the affinity (KD) of interactions with glycans run in 1:5 dilution series at concentrations between 100 μM to 1 nM. Results were analysed using BIAcore T200 software 2.0.2.
# NHBANm = NHBANm (Neisseria meningitidis serogroup B, UniProt Q7DD37); conditions: cited from earlier work
# [1] = system: N. gonorrhoeae 1291 ΔNHBA; experiment: Normal human serum survival assay; type: cell-based, Neisseria gonorrhoeae; conditions: ΔNHBA mutant; 10% normal human serum, 60 minutes; 6 μM heparin pre-incubation
# Procedure: Resistance of N. gonorrhoeae to serum-mediated killing was tested as described previously with ˜10^4 CFU incubated in 10% (v/v) for 60 minutes at 37° C. and subsequently plated on GC agar. Bacteria were pre-incubated with 6 μM heparin 30 minutes where indicated. Bacterial survival was calculated as percent CFU (average from three replicate wells) relative to no treatment control.
# [2] = system: N. gonorrhoeae adherence to cervical (tCX) epithelial cells; experiment: Blocking of gonococcal adherence by sera, cervical epithelial cells; type: cell-based, Neisseria gonorrhoeae
# Procedure: (§1) Gonococcal adherence assays were performed as described previously with following modifications. Briefly, tCX and tUEC cell monolayers were infected (10 min at 37° C.) with approximately 1×10^5 CFU that was initially pre-incubated with serial dilutions of heat-inactivated mouse sera for 30 min at room temperature. Following the infection, cell monolayers were washed three times with warm HBSS to remove non-adherent bacteria and well contents plated onto GC agar. Results were calculated as the mean CFU from three replicate wells and presented as percentage of adherent bacteria relative to no antibody control. Statistical analysis performed with ANOVA and two-tailed Student's t-test. Each experiment was performed three times.
# [3] = system: NHBA-heparin interactions; experiment: SPR competition assay, blocking of NHBA-heparin interactions by sera; type: binding, Neisseria gonorrhoeae; conditions: 1:200 dilution of serum; heparin max 50 μM
# Procedure: SPR competition assays were performed using a Pall Pioneer FE. Competition assays were performed as previously described using NextStep injections in the OneStep assay builder. Pre- and post-immune NHBA mouse sera were used as the first injection (A), and heparin as the second injection (B). Binding of heparin (maximum OneStep concentration of 50 μM) to NHBA was compared with and without serum, and with 1:200 dilution of pre- or post-immune serum. Data was collected using the Pioneer Software package and analyzed using Qdat analysis software. The percentage blocking was calculated based on the relative RMax of the heparin injection without serum (Injection A=buffer; B=heparin) versus the serum subtracted (Injection A=pre/postimmune serum; B=buffer) binding of heparin in the presence of serum ((Injection A=pre/postimmune serum; B=heparin).
# [4] = system: N. gonorrhoeae adherence to urethral (tUEC) epithelial cells; experiment: Blocking of gonococcal adherence by sera, urethral epithelial cells; type: cell-based, Neisseria gonorrhoeae
# Procedure: as §1
# [5] = single cycle kinetics, immobilised NHBANg, read-out: KD
molecule,measurement,setting,value
C[C@@H]1O[C@@H](O[C@@H]2[C@@H](O)[C@@H](O)[C@@H](CO)O[C@H]2O)[C@@H](O)[C@H](O)[C@@H]1O [H-disaccharide],"SPR binding, in words",NHBANg,No concentration dependent binding
"CC(=O)N[C@H]1[C@H](O[C@H]2[C@@H](O)[C@@H](CO)O[C@@H](O[C@H]3[C@H](O)[C@@H](O)C(O)O[C@@H]3CO)[C@@H]2O)O[C@H](CO)[C@@H](O[C@@H]2O[C@H](CO)[C@H](O)[C@H](O)[C@H]2O)[C@@H]1O (stereo partly drawn) [LNnT, lacto N-neotetraose]",Kd,NHBANg,4890 nM
CC(=O)N[C@H]1[C@H](O[C@H]2[C@@H](O)[C@@H](CO)O[C@@H](O[C@H]3[C@H](O)[C@@H](O)C(O)O[C@@H]3CO)[C@@H]2O)O[C@H](CO[C@]2(C(=O)O)C[C@H](O)[C@@H](NC(C)=O)[C@H]([C@H](O)[C@H](O)CO)O2)[C@@H](O)[C@@H]1O[C@@H]1O[C@H](CO)[C@H](O)[C@H](O)[C@H]1O (stereo partly drawn) [LSTb],Kd,NHBANg,2260 nM
CC(=O)N[C@H]1[C@H](O[C@H]2[C@@H](O)[C@@H](CO)O[C@@H](O[C@H]3[C@H](O)[C@@H](O)C(O)O[C@@H]3CO)[C@@H]2O)O[C@H](CO)[C@@H](O[C@@H]2O[C@H](CO[C@]3(C(=O)O)C[C@H](O)[C@@H](NC(C)=O)[C@H]([C@H](O)[C@H](O)CO)O3)[C@H](O)[C@H](O)[C@H]2O)[C@@H]1O (stereo partly drawn) [LSTc],Kd,NHBANg,240 nM
CC(=O)N[C@H]1C(O)O[C@H](CO)[C@@H](O[C@@H]2O[C@H](CO)[C@H](O)[C@H](O)[C@H]2O)[C@@H]1O[C@@H]1O[C@@H](C)[C@@H](O)[C@@H](O)[C@@H]1O (stereo partly drawn) [Lewis X],fold greater affinity than for sialyl Lewis X,NHBANg; ratio of KD,5 fold
same,Kd,NHBANg; [5],680 nM
CC(=O)N[C@H]1[C@H]([C@H](O)[C@H](O)CO)O[C@@](O[C@H]2[C@@H](O)[C@@H](CO)O[C@@H](O[C@H]3[C@H](O[C@@H]4O[C@@H](C)[C@@H](O)[C@@H](O)[C@@H]4O)[C@@H](NC(C)=O)C(O)O[C@@H]3CO)[C@@H]2O)(C(=O)O)C[C@@H]1O (stereo partly drawn) [sialyl Lewis X],Kd,"NHBANg; single cycle kinetics, immobilised NHBANg",3650 nM
"O=C[C@H](O)[C@@H](O)[C@H](O)[C@H](O)COP(=O)(O)O [β-Glc6P, glucose 6-phosphate]",Kd,NHBANm,56 nM
chondroitin 4-sulfate [chondroitin sulfate A],"SPR binding, in words",NHBANg,no concentration dependent binding
chondroitin 6-sulfate [chondroitin sulfate C],"SPR binding, in words",NHBANg,bound
chondroitin sulfate,Kd,NHBANg; [5],73 nM
dermatan sulfate [chondroitin sulfate B],"SPR binding, in words",NHBANg,no concentration dependent binding
heparan sulfate,Kd,NHBANg; [5],2790 nM
heparin,Kd,NHBANg; [5],4.4 nM
same,"survival in human serum after pre-treatment, in words",[1],increased survival
hyaluronan,"SPR binding, in words",NHBANg,No concentration dependent binding
B1,"adherence of serum-treated gonococci, in words","[2]; cervical epithelial cells, all tested concentrations, relative to untreated control",significantly reduced adherence
same,decrease of gonococcal adherence,"[2]; tCX cells, 1:20 dilution of sera, relative to no antibody control",8 fold
same,reduction of heparin binding to NHBA,[3],11%
same,decrease of gonococcal adherence,"[4]; tUEC cells, 1:20 dilution of sera, relative to no antibody control",5 fold
same,"adherence of serum-treated gonococci, in words","[4]; urethral epithelial cells, all tested concentrations, relative to untreated control",significantly reduced adherence
